Structures can show the parent of a compound that is named as a salt.

For assay [1], the system named is MMP-13. The experiment in a line: MMP-13 Production Inhibition Test. In kind it is cell-based, human. To be noted: Homo sapiens; 30 μmol/L; SW1353 cells stimulated with IL-1β 10 ng/mL; MMP-13 in culture supernatant by ELISA 16 hours after stimulation; read-out: Inhibition rate (%) at 30 μmol/L. Here is the method:
MMP-13 Production Inhibition Test
6.8×10^3 human cartilage derived cell line SW1353 cells were suspended in 100 μL of Dulbecco modified Eagle's medium supplemented with 10% fetal calf serum, plated on 96-well plates and cultured for 3 days. After the culture medium was changed to Dulbecco modified Eagle's medium containing 0.2% lactalbumin hydrolysate and the cells were cultured for 6 hours, […] were added and then IL-1β was added to obtain the final concentration of 10 ng/mL 1 hour later. 16 hours after the stimulation, supernatant was collected and the amount of MMP-13 in the culture supernatant was determined with an ELISA kit (Amersham). The inhibition rate was calculated from the amount of MMP-13 in the presence of a test compound assuming that the amount of MMP-13 was 100% in the absence of the test compound.

Assay [2] has as its system DBA/1J mice. The experiment in a line: Type II Collagen-induced Arthritis in Mice. In kind it is in vivo. The conditions noted are these: 30 mg/kg orally once a day from the 21st day to the 35th day, male DBA/1J mice. Here is the method:
Type II Collagen-induced Arthritis in Mice
Eight-week old male DBA/1J mice were used (Charles River Laboratories Japan Inc.). 4 mg/mL bovine type II collagen (Collagen Gijutsu Kenshukai) dissolved in 0.01 mol/L of acetic acid aqueous solution and an equal amount of Freund's complete adjuvant (Chondorex) containing 1 mg/mL of killed tuberculosis bacillus were added to prepare an emulsion, and 0.1 mL thereof was intradermally injected at the base of tail. Similar treatment was conducted on the 21st day to cause arthritis. The test compound was suspended in 0.5% methylcellulose aqueous solution, and 30 mg/kg was orally administered once a day from the 21st day to the 35th day. In the control group, 0.5% methylcellulose aqueous solution was administered in the same manner. The severity of arthritis was estimated by scoring at zero point for an animal without change; one point for an animal with swelling at the one or two finger joint or light swelling only at the carpal or tarsal joint; two points for an animal with severe swelling at the carpal or tarsal joint or with swelling at three or more finger joints; three points for an animal with severe swelling along the whole foreleg or hindleg and thus counting 12 points at the maximum for the four limbs as arthritis score. […] The inhibitory rate was determined by the following expression. […]

Take `O=C(Nc1cc(/C=C/c2cccc3nsnc23)ccc1C(=O)O)c1ccccc1` [Example 146, 2-(Benzamido)-4-((E)-2-(2,1,3-benzothiadiazol-4-yl)vinyl)benzoic acid]: the inhibition at 30 µM in assay [1] came to 97%.
On the same count and under the same terms, for `O=C(O)c1ccc(Oc2ccccc2)cc1NC(=O)C1CCCCC1` [Example 85, 2-(Cyclohexanecarboxamido)-4-phenoxybenzoic acid] the value was 60%; for `O=C(Nc1cc(CCc2ccccc2)ccc1C(=O)O)c1ccc(C(F)(F)F)cc1` [Example 264, 4-Phenethyl-2-(4-(trifluoromethyl)benzamido)benzoic acid], 94%; for `CC(=O)c1cccc(C(=O)Nc2cc(-c3ccccc3)ccc2C(=O)O)c1` [Example 514, 2-(3-Acetylbenzamido)-4-phenylbenzoic acid], 91%.
Consider `O=C(Nc1cc(-c2ccc3c(c2)OCO3)ccc1C(=O)O)c1ccccc1` [Example 11, 2-(benzamido)-4-(benzo[1,3]dioxol-5-yl)benzoic acid], for which the inhibition at 30 µM in assay [1] stood at 92%.
On to `O=C(Nc1cc(-c2ccc(F)cc2F)ccc1C(=O)O)c1ccc(F)cc1` [Example 150, 4-(2,4-difluorophenyl)-2-(4-fluorobenzamido)benzoic acid], for which the inhibition at 30 µM in assay [1] was determined as 96%.
Regarding `O=C(Nc1cc(-c2cccs2)ccc1C(=O)O)c1ccccc1` [Example 7, 2-(Benzamido)-4-(thiophen-2-yl)benzoic acid], the inhibition at 30 µM in assay [1] is 91%.
Take `O=C(Nc1cc(-c2ccccc2)ccc1C(=O)O)c1ccccc1F` [Example 282]: the inhibition at 30 µM in assay [1] is 75%.
For the compound `O=C(/C=C/c1ccc(Cl)c(Cl)c1)Nc1cc(Oc2ccccc2)ccc1C(=O)O` [Example 382, 2-((E)-3-(3,4-Dichlorophenyl)acrylamido)-4-phenoxybenzoic acid], in assay [1], the inhibition at 30 µM worked out at 98%.
Still for that read-out and setting: for `O=C(Nc1cc(Oc2ccccc2)ccc1C(=O)O)c1ccc(N2CCOCC2)nc1` [Example 330, 2-(6-Morpholinopyridine-3-carboxamido)-4-phenoxybenzoic acid] the value was 68%.
`O=C(Nc1cc(OC2CCCCC2)ccc1C(=O)O)c1ccccc1` [Example 105, 2-(benzamido)-4-(cyclohexyloxy)benzoic acid]: the inhibition at 30 µM in assay [1] turned out to be 64%.
The same measure, in the same setting: for `O=C(Nc1cc(CCc2ccccc2)ccc1C(=O)O)c1ccc(F)c(F)c1` [Example 433, 2-(3,4-Difluorobenzamido)-4-phenethylbenzoic acid] the value was 98%; for `Cc1ccc(C(=O)Nc2cc(CCc3ccccc3)ccc2C(=O)O)cc1C` [Example 261, 2-(3,4-Dimethylbenzamido)-4-phenethylbenzoic acid], 94%.
The same measure, in the same setting: for `O=C(Nc1cc(Oc2ccccc2)ccc1C(=O)O)c1ccc2occc2c1` [Example 96, 2-(Benzofuran-5-carboxamido)-4-phenoxybenzoic acid] the value was 96%; for `O=C(Nc1cc(Oc2ccccc2)ccc1C(=O)O)c1ccc2c(c1)OCO2` [Example 80, 2-(Benzo[1,3]dioxole-5-carboxamido)-4-phenoxybenzoic acid], 92%.
With `O=C(Nc1cc(-c2ccc(Cl)cc2)ccc1C(=O)O)c1ccccc1` [Example 212, 2-(Benzamido)-4-(4-chlorophenyl)benzoic acid], the inhibition at 30 µM in assay [1] worked out at 95%.
Still for that read-out and setting: for `Cc1cccc(C)c1Oc1ccc(C(=O)O)c(NC(=O)c2ccccc2)c1` [Example 564, 2-(Benzamido)-4-(2,6-dimethylphenoxy)benzoic acid] the value was 97%; for `O=C(Nc1cc(Oc2ccccc2)ccc1C(=O)O)c1ccc2c(c1)OCCO2` [Example 83, 2-(2,3-Dihydrobenzo[1,4]dioxin-6-carboxamido)-4-phenoxybenzoic acid], 93%; for `O=C(O)c1ccc(Oc2ccccc2)cc1NS(=O)(=O)c1ccccc1` [Example 88, 2-(Benzenesulfonamido)-4-phenoxybenzoic acid], 80%.
Regarding `O=C(Nc1cc(-c2ccc(F)cc2F)ccc1C(=O)O)c1ccccc1` [Example 19, 2-(benzamido)-4-(2,4-difluorophenyl)benzoic acid], the inhibition at 30 µM in assay [1] came to 94%.
For `O=C(CCCc1ccccc1)Nc1cc(Oc2ccccc2)ccc1C(=O)O` [Example 467, 4-phenoxy-2-(4-phenylbutanamido)benzoic acid], the inhibition at 30 µM in assay [1] stood at 90%.
As to `O=C(Nc1cc(Oc2ccccc2)ccc1C(=O)O)c1ccc(Cl)c(Cl)c1` [Example 442, 2-(3,4-Dichlorobenzamido)-4-phenoxybenzoic acid], the inhibition at 30 µM in assay [1] stood at 99%.
In the case of `O=C(Nc1cc(Oc2ccccc2)ccc1C(=O)O)c1ccc(-n2cccc2)nc1` [Example 499, 4-Phenoxy-2-(6-(1H-pyrrol-1-yl)pyridine-3-carboxamido)benzoic acid], in assay [1], the inhibition at 30 µM came to 99%.
For `O=C(Nc1cc(-n2cnc3ccccc32)ccc1C(=O)O)c1ccccc1` [Example 415, 2-(benzamido)-4-(1H-benzimidazol-1-yl)benzoic acid hydrochloride], the inhibition at 30 µM in assay [1] was determined as 97%.
Still for that read-out and setting: for `O=C(Nc1cc(/C=C/c2ccc(F)cc2F)ccc1C(=O)O)c1ccccc1` [Example 141, 2-(benzamido)-4-((E)-2-(2,4-difluorophenyl)vinyl)benzoic acid] the value was 95%.
On to `Cc1ccc(-c2ccc(C(=O)O)c(NC(=O)c3ccccc3)c2)cc1Cl` [Example 426, 2-(benzamido)-4-(3-chloro-4-methylphenyl)benzoic acid], for which the inhibition at 30 µM in assay [1] is 98%.
On to `O=C(Nc1cc(CCc2ccc(OC(F)(F)F)cc2)ccc1C(=O)O)c1ccccc1` [Example 138, 2-(Benzamido)-4-(2-(4-(trifluoromethoxy)phenyl)ethyl)benzoic acid], for which, in assay [1], the inhibition at 30 µM came out at 95%.
On to `O=C(Nc1cc(/C=C/c2cc(F)cc(F)c2)ccc1C(=O)O)c1ccccc1` [Example 130, 2-(Benzamido)-4-((E)-2-(3,5-difluorophenyl)vinyl)benzoic acid], for which the inhibition at 30 µM in assay [1] was 96%.
Regarding `O=C(Nc1cc(CCc2ccccc2)ccc1C(=O)O)c1ccc(N2CCCCC2)nc1` [Example 525, 4-phenethyl-2-(6-(piperidin-1-yl)pyridine-3-carboxamido)benzoic acid], the inhibition at 30 µM in assay [1] stood at 87%.
With `COc1cccc(Oc2ccc(C(=O)O)c(NC(=O)c3ccccc3)c2)c1` [Example 543, 2-(Benzamido)-4-(3-methoxyphenoxy)benzoic acid], in assay [1], the inhibition at 30 µM worked out at 85%.
`O=C(Nc1cc(OCc2ccccc2)ccc1C(=O)O)c1ccccc1` [Example 99, 2-(benzamido)-4-(benzyloxy)benzoic acid]: the inhibition at 30 µM in assay [1] came out at 71%.
The same measure, in the same setting: for `O=C(Nc1cc(-c2cc3ccccc3o2)ccc1C(=O)O)c1ccccc1` [Example 8, 2-(benzamido)-4-(benzofuran-2-yl)benzoic acid] the value was 95%; for `O=C(Nc1cc(-c2cccc(Cl)c2)ccc1C(=O)O)c1ccccc1` [Example 222, 2-(benzamido)-4-(3-chlorophenyl)benzoic acid], 98%.
Turning to `O=C(Nc1cc(CCc2ccccc2)ccc1C(=O)O)c1ccccc1` [Example 25, 2-(benzamido)-4-phenethylbenzoic acid], the inhibition at 30 µM in assay [1] is 86%. In addition, the “inhibitory action on bone destruction (bone destruction score)” value in assay [2] (X-ray of the four limbs on the 36th day) is reported as “exhibited inhibitory action”. For the same compound, the “inhibitory action on arthritis (arthritis score)” value in assay [2] was “exhibited inhibitory action”.
For the compound `O=C(Nc1cc(-c2ccccc2)ccc1C(=O)O)c1cccc(-c2ccccc2)c1` [Example 512, 2-(Biphenyl-3-carboxamido)-4-phenylbenzoic acid], the inhibition at 30 µM in assay [1] was 99%.
